# Structures can show the parent of a compound that is named as a salt.
# Assays:
# P. aeruginosa PBP3 = P. aeruginosa PBP3 (Pseudomonas aeruginosa, UniProt G3XD46); format: biochemical; conditions: P. aeruginosa PBP3 60 nM, BOCILLIN FL 30 nM, pH 7.0
# E. coli (ATCC25922) = assay: MIC against E. coli; conditions: Escherichia coli, ATCC25922, read-out: E. coli MIC (ATCC25922) (mg/L)
# P. aeruginosa PBP1a = P. aeruginosa PBP1a (Pseudomonas aeruginosa, UniProt Q07806); format: biochemical; conditions: P. aeruginosa PBP1a 60 nM, BOCILLIN FL 30 nM, pH 7.0
# Sequence of P. aeruginosa PBP1a (Q07806 whole entry): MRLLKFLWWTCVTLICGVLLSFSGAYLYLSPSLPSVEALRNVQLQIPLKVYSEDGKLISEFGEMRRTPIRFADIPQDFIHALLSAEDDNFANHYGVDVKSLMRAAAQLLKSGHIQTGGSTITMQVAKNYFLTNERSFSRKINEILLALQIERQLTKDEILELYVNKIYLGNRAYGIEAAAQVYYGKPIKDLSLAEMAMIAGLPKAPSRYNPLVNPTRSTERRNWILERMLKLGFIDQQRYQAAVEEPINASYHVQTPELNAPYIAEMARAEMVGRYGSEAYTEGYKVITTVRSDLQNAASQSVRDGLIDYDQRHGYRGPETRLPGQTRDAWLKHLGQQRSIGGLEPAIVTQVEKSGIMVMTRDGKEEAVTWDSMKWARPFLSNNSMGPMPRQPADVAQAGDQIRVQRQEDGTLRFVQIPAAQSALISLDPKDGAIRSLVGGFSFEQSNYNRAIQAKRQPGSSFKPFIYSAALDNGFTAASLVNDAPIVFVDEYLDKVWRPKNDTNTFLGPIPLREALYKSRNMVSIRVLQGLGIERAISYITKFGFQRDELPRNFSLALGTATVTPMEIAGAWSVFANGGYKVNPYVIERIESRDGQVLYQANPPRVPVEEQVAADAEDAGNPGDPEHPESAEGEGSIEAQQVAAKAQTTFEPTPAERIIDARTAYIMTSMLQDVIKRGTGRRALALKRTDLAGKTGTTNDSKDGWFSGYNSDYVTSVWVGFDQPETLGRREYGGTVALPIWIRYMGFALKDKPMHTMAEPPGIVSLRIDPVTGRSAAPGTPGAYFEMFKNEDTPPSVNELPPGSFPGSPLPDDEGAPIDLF
# [1] = tested on: K. pneumoniae (ATCC700603); assay: MIC against K. pneumoniae; conditions: Klebsiella pneumoniae, ATCC700603, read-out: K. pneumoniae MIC (ATCC700603)
# A. baumannii (ARC3495) = assay: MIC against A. baumannii; conditions: Acinetobacter baumannii, read-out: A. baumannii MIC (ARC3495) (mg/L)
# P. aeruginosa WT (PAO1) = assay: MIC, CLSI broth microdilution, P. aeruginosa; format: cell-based; conditions: Pseudomonas aeruginosa, PAO1; CLSI broth microdilution; read-out: P. aeruginosa WT (PAO1) MIC
# Sequence of P. aeruginosa PBP3 (G3XD46 whole entry): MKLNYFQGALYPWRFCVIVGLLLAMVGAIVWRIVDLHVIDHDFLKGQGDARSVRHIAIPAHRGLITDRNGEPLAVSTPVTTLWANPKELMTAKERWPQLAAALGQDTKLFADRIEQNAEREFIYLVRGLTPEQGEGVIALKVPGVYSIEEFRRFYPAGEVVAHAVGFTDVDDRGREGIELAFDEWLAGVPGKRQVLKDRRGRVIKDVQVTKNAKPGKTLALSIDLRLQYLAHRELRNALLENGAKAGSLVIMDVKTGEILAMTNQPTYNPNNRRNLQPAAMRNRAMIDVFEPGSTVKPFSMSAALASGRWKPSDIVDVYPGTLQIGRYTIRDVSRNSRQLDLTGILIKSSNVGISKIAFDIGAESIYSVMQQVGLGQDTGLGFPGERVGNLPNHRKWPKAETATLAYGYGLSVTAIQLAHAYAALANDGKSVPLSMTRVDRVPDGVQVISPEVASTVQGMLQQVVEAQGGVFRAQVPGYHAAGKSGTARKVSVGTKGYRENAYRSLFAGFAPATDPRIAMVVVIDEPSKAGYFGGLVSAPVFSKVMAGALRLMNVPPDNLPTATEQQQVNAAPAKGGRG
SMILES,MIC (E. coli (ATCC25922)) [mg/L],MIC [1] [µg/mL],MIC (A. baumannii (ARC3495)) [mg/L],MIC (P. aeruginosa WT (PAO1)) [µg/mL],"PBP3 acylation rate, k(on) (M^−1 · s^−1) (P. aeruginosa PBP3)","PBP1a acylation rate, k(on) (M^−1 · s^−1) (P. aeruginosa PBP1a)"
"CN/C(=N\OCC(=O)NCCN)[C@@H]1c2c(cnn2C)[C@@H]2CN1C(=O)N2OS(=O)(=O)O (racemic) [Example 58, (4R,8S)-8-((Z)—N′-(2-((2-aminoethyl)amino)-2-oxoethoxy)-N-methylcarbamimidoyl)-1-methyl-6-oxo-4,8-dihydro-1H-4,7-methanopyrazolo[3,4-e][1,3]diazepin-5(6H)-yl hydrogen sulfate]",8 to 16,8 to 16,8 to 16,< 8,"*** (*** represents a k(on) > 10,000 M^−1 · s^−1)",* (* represents a k(on) < 100 M^−1 · s^−1)
"CN/C(=N\OC(=O)NCCNC(N)=O)[C@@H]1c2c(cnn2C)[C@@H]2CN1C(=O)N2OS(=O)(=O)O [Example 42, (4R,8S)-1-methyl-8-((Z)—N-methyl-N′-(((2-ureidoethyl)carbamoyl)oxy)carbamimidoyl)-6-oxo-4,8-dihydro-1H-4,7-methanopyrazolo[3,4-e][1,3]diazepin-5(6H)-yl hydrogen sulfate]",8 to 16,> 16,8 to 16,8 to 16,"*** (*** represents a k(on) > 10,000 M^−1 · s^−1)","** (** represents a k(on) of 100 to 10,000 M^−1 · s^−1)"
"CN(C(N)=O)/C(=N\OC(=O)NCCNC(N)=O)[C@@H]1c2c(cnn2C)[C@@H]2CN1C(=O)N2OS(=O)(=O)O [Example 43, (4R,8S)-8-((Z)—N-carbamoyl-N-methyl-N′-(((2-ureidoethyl)carbamoyl)oxy)carbamimidoyl)-1-methyl-6-oxo-4,8-dihydro-1H-4,7-methanopyrazolo[3,4-e][1,3]diazepin-5(6H)-yl hydrogen sulfate]",< 8,> 16,> 16,> 16,"*** (*** represents a k(on) > 10,000 M^−1 · s^−1)","** (** represents a k(on) of 100 to 10,000 M^−1 · s^−1)"
"CN/C(=N\OC(=O)NCCNC(C)=O)[C@@H]1c2c(cnn2C)[C@@H]2CN1C(=O)N2OS(=O)(=O)O [Example 44, (4R,8S)-8-((Z)—N′-(((2-acetamidoethyl)carbamoyl)oxy)-N-methylcarbamimidoyl)-1-methyl-6-oxo-4,8-dihydro-1H-4,7-methanopyrazolo[3,4-e][1,3]diazepin-5(6H)-yl hydrogen sulfate]",8 to 16,> 16,> 16,> 16,"*** (*** represents a k(on) > 10,000 M^−1 · s^−1)","** (** represents a k(on) of 100 to 10,000 M^−1 · s^−1)"
"CN/C(=N\OC(=O)NCCCCNC(=O)C(F)(F)F)[C@@H]1c2c(cnn2C)[C@@H]2CN1C(=O)N2OS(=O)(=O)O [Example 45, (4R,8S)-1-methyl-8-((Z)—N-methyl-N′-(((4-(2,2,2-trifluoroacetamido)butyl)carbamoyl)oxy)carbamimidoyl)-6-oxo-4,8-dihydro-1H-4,7-methanopyrazolo[3,4-e][1,3]diazepin-5(6H)-yl hydrogen sulfate]",< 8,> 16,> 16,> 16,"*** (*** represents a k(on) > 10,000 M^−1 · s^−1)","** (** represents a k(on) of 100 to 10,000 M^−1 · s^−1)"
"CN/C(=N\OS(N)(=O)=O)[C@@H]1c2c(cnn2C)[C@@H]2CN1C(=O)N2OS(=O)(=O)O [Example 46, (4R,8S)-1-methyl-8-((Z)—N-methyl-N′-(sulfamoyloxy)carbamimidoyl)-6-oxo-4,8-dihydro-1H-4,7-methanopyrazolo[3,4-e][1,3]diazepin-5(6H)-yl hydrogen sulfate]",8 to 16,8 to 16,> 16,8 to 16,"*** (*** represents a k(on) > 10,000 M^−1 · s^−1)","** (** represents a k(on) of 100 to 10,000 M^−1 · s^−1)"
"CN/C(=N\O)[C@@H]1c2c(cnn2CCNC(C)=O)[C@@H]2CN1C(=O)N2OS(=O)(=O)O [Example 48, (4R,8S)-1-(2-acetamidoethyl)-8-((Z)—N′-hydroxy-N-methylcarbamimidoyl)-6-oxo-4,8-dihydro-1H-4,7-methanopyrazolo[3,4-e][1,3]diazepin-5(6H)-yl hydrogen sulfate]",< 8,> 16,> 16,8 to 16,"*** (*** represents a k(on) > 10,000 M^−1 · s^−1)",* (* represents a k(on) < 100 M^−1 · s^−1)
"CN/C(=N\O)[C@@H]1c2c(cnn2CC(N)=O)[C@@H]2CN1C(=O)N2OS(=O)(=O)O [Example 50, (4R,8S)-1-(2-amino-2-oxoethyl)-8-((Z)—N′-hydroxy-N-methylcarbamimidoyl)-6-oxo-4,8-dihydro-1H-4,7-methanopyrazolo[3,4-e][1,3]diazepin-5(6H)-yl sulfate]",< 8,< 8,8 to 16,< 8,"*** (*** represents a k(on) > 10,000 M^−1 · s^−1)","** (** represents a k(on) of 100 to 10,000 M^−1 · s^−1)"
"CN/C(=N\OC(=O)NCc1cn(C)[n+](C)c1)[C@@H]1c2c(cnn2C)[C@@H]2CN1C(=O)N2OS(=O)(=O)O [Example 54, 1,2-dimethyl-4-((Z)-3-((4R,8S)-1-methyl-6-oxo-5-(sulfooxy)-4,5,6,8-tetrahydro-1H-4,7-methanopyrazolo[3,4-e][1,3]diazepin-8-yl)-6-oxo-5-oxa-2,4,7-triazaoct-3-en-8-yl)-1H-pyrazol-2-ium]",< 8,> 16,> 16,8 to 16,"*** (*** represents a k(on) > 10,000 M^−1 · s^−1)",* (* represents a k(on) < 100 M^−1 · s^−1)
"CN/C(=N\OCC(N)=O)[C@@H]1c2c(cnn2C)[C@@H]2CN1C(=O)N2OS(=O)(=O)O [Example 57, pyridium (4R,8S)-8-((Z)—N′-(2-amino-2-oxoethoxy)-N-methylcarbamimidoyl)-1-methyl-6-oxo-4,8-dihydro-1H-4,7-methanopyrazolo[3,4-e][1,3]diazepin-5(6H)-yl hydrogen sulfate]",8 to 16,8 to 16,8 to 16,< 8,"*** (*** represents a k(on) > 10,000 M^−1 · s^−1)","** (** represents a k(on) of 100 to 10,000 M^−1 · s^−1)"

# Second part, led by results:
MIC (E. coli (ATCC25922)) [mg/L],MIC [1] [µg/mL],MIC (A. baumannii (ARC3495)) [mg/L],MIC (P. aeruginosa WT (PAO1)) [µg/mL],SMILES,"PBP3 acylation rate, k(on) (M^−1 · s^−1) (P. aeruginosa PBP3)","PBP1a acylation rate, k(on) (M^−1 · s^−1) (P. aeruginosa PBP1a)"
8 to 16,> 16,8 to 16,< 8,CN/C(=N\OCC(=O)NCCCCN)[C@@H]1c2c(cnn2C)[C@@H]2CN1C(=O)N2OS(=O)(=O)O (racemic) [Example 59],"*** (*** represents a k(on) > 10,000 M^−1 · s^−1)","** (** represents a k(on) of 100 to 10,000 M^−1 · s^−1)"
< 8,> 16,> 16,8 to 16,CN/C(=N\OCC(=O)NCCCC[C@H](N)C(=O)O)[C@@H]1c2c(cnn2C)[C@@H]2CN1C(=O)N2OS(=O)(=O)O (racemic) [Example 60],"*** (*** represents a k(on) > 10,000 M^−1 · s^−1)",* (* represents a k(on) < 100 M^−1 · s^−1)
< 8,> 16,> 16,8 to 16,CN/C(=N\OCC(=O)NC1CNC1)[C@@H]1c2c(cnn2C)[C@@H]2CN1C(=O)N2OS(=O)(=O)O (racemic) [Example 61],"** (** represents a k(on) of 100 to 10,000 M^−1 · s^−1)",* (* represents a k(on) < 100 M^−1 · s^−1)
8 to 16,8 to 16,> 16,< 8,"CN/C(=N\OCC(=O)O)[C@@H]1c2c(cnn2C)[C@@H]2CN1C(=O)N2OS(=O)(=O)O [Example 62, 2-((((Z)-((4R,8S)-1-methyl-6-oxo-5-(sulfooxy)-4,5,6,8-tetrahydro-1H-4,7-methanopyrazolo[3,4-e][1,3]diazepin-8-yl)(methylamino)methylene)amino)oxy)acetic acid]","*** (*** represents a k(on) > 10,000 M^−1 · s^−1)","** (** represents a k(on) of 100 to 10,000 M^−1 · s^−1)"
< 8,> 16,> 16,8 to 16,CN/C(=N\OC(C)(C)C(=O)O)[C@@H]1c2c(cnn2C)[C@@H]2CN1C(=O)N2OS(=O)(=O)O [Example 63],"*** (*** represents a k(on) > 10,000 M^−1 · s^−1)","** (** represents a k(on) of 100 to 10,000 M^−1 · s^−1)"
< 8,> 16,> 16,> 16,"CN1C(=O)CON=C1[C@@H]1c2c(cnn2C)[C@@H]2CN1C(=O)N2OS(=O)(=O)O [Example 64, ((4R,8S)-1-methyl-8-(4-methyl-5-oxo-5,6-dihydro-4H-1,2,4-oxadiazin-3-yl)-6-oxo-4,8-dihydro-1H-4,7-methanopyrazolo[3,4-e][1,3]diazepin-5(6H)-yl) hydrogen sulfate]","** (** represents a k(on) of 100 to 10,000 M^−1 · s^−1)","** (** represents a k(on) of 100 to 10,000 M^−1 · s^−1)"
